Measured values as given in patent publication US8809010B2, “Method for prophylactic treatment of alzheimer's disease using inhibitors of glutaminyl cyclase and glutamate cyclases” (Probiodrug AG, priority 2003, dated 2014).
Each block holds one compound with its values, some of them ahead of it. Bridge positions count the residues as written; N and C are the ends. Ends that are not written are not given here. Peptide text beside a SMILES is read from it.

Tests used:
Type in all cases: biochemical
human QC [1] = molecular target: T1, human QC (Homo sapiens, UniProt Q16769); assay: Qualitative substrate conversion (MALDI-TOF / fluorometric); parameters: key to substrate conversion, determined qualitatively: *: determined qualitatively by MALDI-TOF experiments
T1 construct: The cDNA of the mature QC starting with codon 38 was fused in frame with the plasmid encoded 6× histidine tag; 6xHis; made in house; host or cells: Pichia pastoris X33 (pPICZαB, secreted); also E. coli M15 (pQE-31)
Procedure: Matrix-assisted laser desorption/ionization mass spectrometry was carried out using the Hewlett-Packard G2025 LD-TOF System with a linear time of flight analyzer. […] Samples (5 μl) were mixed with equal volumes of the matrix solution. For matrix solution we used DHAP/DAHC, prepared by solving 30 mg 2′,6′-dihydroxyacetophenone (Aldrich) and 44 mg diammonium hydrogen citrate (Fluka) in 1 ml acetonitrile/0.1% TFA in water (1/1, v/v). A small volume (≈1 μl) of the matrix-analyte-mixture was transferred to a probe tip and immediately evaporated in a vacuum chamber (Hewlett-Packard G2024A sample prep accessory) to ensure rapid and homogeneous sample crystallization.
In order to further investigate the specificity and selectivity of the QCs, peptides were synthesized comprising either a modified N-terminal glutaminyl residue or a modified amino acid in the second position. […] Due to the cyclization of the glutaminyl residue or its analog, respectively, a mass difference of the substrate and the product of catalysis is detected. In cases of ammonia liberation of one mole per mole of substrate, the conversion was also analyzed quantitatively using the spectrophotometric assay.

human QC [2] = molecular target: T1, human QC; assay: Continuous spectrophotometric QC assay (glutamate dehydrogenase coupled), substrate kinetics; conditions: for Ki* (mM): for substrate inhibition;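 for all read-outs here: initial rates read on a microplate reader at 30 °C, with enzyme activity quantified against an ammonia calibration curve under the same assay conditions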
Procedure: The initial velocities were evaluated and the enzymatic activity was determined from a standard curve of ammonia under assay conditions. All samples were measured at 30° C., using either the [sequence]luor Plus or the Sunrise (both from TECAN) reader for microplates. Kinetic data was evaluated using GraFit software.

human QC [3] = molecular target: T1, human QC; assay: QC inhibitor assay (fluorometric, H-Gln-AMC / H-Gln-βNA, pyroglutamyl aminopeptidase coupled)
human QC [4] = molecular target: T1, human QC; assay: Long-term Glu1-cyclization of Aβ-derived peptides by recombinant human QC, MALDI-TOF; conditions: pH 5.2 and 6.5
Procedure: For long-term testing of Glu^1-cyclization, Aβ-derived peptides were incubated in 100 μl 0.1 M sodium acetate buffer, pH 5.2 or 0.1 M Bis-Tris buffer, pH 6.5 at 30° C. Peptides were applied in 0.5 mM [Aβ3-11a] or 0.15 mM [Aβ3-21a] concentrations, and 0.2 U QC was added all 24 hours. In case of Aβ3-21a, the assays contained 1% DMSO. At different times, samples were removed from the assay tube, peptides extracted using ZipTips (Millipore) according to the manufacturer's recommendations, mixed with matrix solution (1:1 v/v) and subsequently the mass spectra recorded. Negative controls did either contain no QC or heat deactivated enzyme.
The QC-catalyzed formation of [pGlu^3]Aβ3-11a and [pGlu^3]Aβ3-21a was investigated at pH 5.2 and 6.5, respectively. If the QC-inhibitor benzimidazole was added to the solution before starting the assay by addition of QC, substrate conversion resulting in [pGlu^3]Aβ3-11a or [pGlu^3]Aβ3-21a was suppressed (FIGS. 15E and F). If QC was boiled before addition, formation of the pGlu-peptides was negligible (FIGS. 15A and B).

[5] = recombinant human QC, buffer containing 1% DMSO
[6] = Human QC, 0.05M Tris-HCl, pH 8.0
[7] = Human QC, 0.05M Tris-HCl, pH 8.0, 0.5 M KCl

T1 sequence (Q16769 29-361): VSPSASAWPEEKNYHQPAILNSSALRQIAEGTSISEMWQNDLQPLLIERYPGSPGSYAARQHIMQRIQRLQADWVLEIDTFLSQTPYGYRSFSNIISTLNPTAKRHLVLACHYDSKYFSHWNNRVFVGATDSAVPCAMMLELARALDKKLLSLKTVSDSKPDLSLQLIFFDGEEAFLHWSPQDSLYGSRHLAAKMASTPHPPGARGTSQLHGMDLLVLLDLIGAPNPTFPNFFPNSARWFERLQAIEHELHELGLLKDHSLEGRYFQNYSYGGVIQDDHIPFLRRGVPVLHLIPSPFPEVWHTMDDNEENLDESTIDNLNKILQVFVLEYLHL

conversion by human QC (human QC [1]): no reactivity | KM (μM) (human QC [2]; Human QC): n.r. | kcat (s^−1) (human QC [2]; Human QC): n.r.
Compound: NC(=O)CC[C@H](N)C(=O)O [H-Gln-OH]

inhibition of human QC (human QC [3]): not inhibited
Compound: COC(=O)CC[C@H](N)C(=O)N[C@@H](Cc1ccccc1)C(=O)N[C@@H](CCCCN)C(=O)N[C@@H](CCCNC(=N)N)C(=O)N[C@@H](CC(C)C)C(=O)N[C@@H](C)C(N)=O [H-Glu(OMe)-Phe-Lys-Arg-Leu-Ala-NH2] (H-E(OMe)FKRLA-NH2)

kcat (human QC [2]; Human QC): 82.8 ± 1.2 s⁻¹
Compound: NC(=O)CC[C@H](N)C(=O)N[C@@H](Cc1c[nH]cn1)C(=O)N1CCC[C@H]1C(N)=O [[Gln^1]-TRH] (H-Gln-His-Pro-NH2)

kcat (human QC [2]; [5]): 62 ± 3 s⁻¹
Compound: QFRHDSGYEVHHQKLVFFA-NH2 [[Gln^3]Aβ3-21a]

kcat (human QC [2]; Human QC): 6.7 ± 0.2 s⁻¹ | Ki* (mM) (human QC [2]; Human QC): n.i.
Compound: CC(C)(C)OC(=O)C(N)CCC(N)=O (centres unmarked) [H-Gln-OtBu]

inhibition of human QC (human QC [3]): not inhibited
Compound: H-EFKRLA-NH2 [H-Glu-Phe-Lys-Arg-Leu-Ala-NH2]

kcat (human QC [2]; Human QC): 17.2 ± 0.1 s⁻¹ | Ki* (mM) (human QC [2]; Human QC): n.i.
Compound: CC(C)[C@H](NC(=O)[C@@H](N)CCC(N)=O)C(=O)O [H-Gln-Val-OH] (H-Gln-Val-OH)

kcat (human QC [2]; Human QC): 24.7 ± 0.2 s⁻¹ | Ki (mM) (human QC [2]; [6]): n.i. | kcat (human QC [2]; [6]): 21.4 ± 0.3 s⁻¹ | Ki (mM) (human QC [2]; [7]): n.i. | kcat (human QC [2]; [7]): 18.9 ± 0.5 s⁻¹ | Ki* (mM) (human QC [2]; Human QC): n.i.
Compound: NC(=O)CC[C@H](N)C(=O)N[C@@H](CCC(=O)O)C(=O)O [H-Gln-Glu-OH] (H-Gln-Glu-OH)

More lines, now with the values behind:

Compound: O=C(NCCCn1ccnc1)Nc1cc(F)cc2c1OCOC2 [Example 97]
Res. Act. (%) (human QC [3]; residual QC activity with inhibitor): 19.0%

Compound: NC(=O)CC[C@H](NC(=O)[C@@H](N)CCC(N)=O)C(=O)O [H-Gln-Gln-OH] (H-Gln-Gln-OH)
kcat (human QC [2]; Human QC): 20.7 ± 0.2 s⁻¹ | Ki* (mM) (human QC [2]; Human QC): n.i.

Compound: H-QAASAA-NH2 [H-Gln-Ala-Ala-Ser-Ala-Ala-NH2]
kcat (human QC [2]; Human QC): 55.3 ± 1.6 s⁻¹

Compound: H-QAAAA-NH2 [H-Gln-Ala-Ala-Ala-Ala-NH2]
kcat (human QC [2]; Human QC): 60.5 ± 0.7 s⁻¹

Compound: H-Gln-cyclo(Nε-Lys-Arg-Pro-Ala-Gly-Phe) (H-QKRPAGF; lactam 2-C; SMILES C[C@@H]1NC(=O)[C@@H]2CCCN2C(=O)[C@H](CCCNC(=N)N)NC(=O)[C@@H](NC(=O)[C@@H](N)CCC(N)=O)CCCCNC(=O)[C@H](Cc2ccccc2)NC(=O)CNC1=O)
kcat (human QC [2]; Human QC): 22.8 ± 0.6 s⁻¹

Compound: S=C(NCCCn1ccnc1)NCc1ccc2c(c1)OCO2 [Example 47]
Ki (human QC [3]): 6100 nM

Compound: Cc1cc(=O)oc2cc(NC(=O)[C@@H](N)CCC(N)=O)ccc12 [H-Gln-AMC]
kcat (human QC [2]; Human QC): 5.3 ± 0.1 s⁻¹

Compound: COc1ccc(NC(=S)NCCCn2ccnc2)cc1 [Example 11, 1-(3-(1H-imidazol-1-yl)propyl)-3-(4-methoxyphenyl)thiourea]
Ki (human QC [3]): 700 nM

Compound: CCOc1ccc(NC(=S)NCCCn2ccnc2)cc1 [Example 27, 1-(3-(1H-imidazol-1-yl)propyl)-3-(4-ethoxyphenyl)thiourea]
Ki (human QC [3]): 890 nM

Compound: C[C@H](NC(=O)[C@@H](N)CCC(N)=O)C(=O)O [H-Gln-Ala-OH] (H-Gln-Ala-OH)
kcat (human QC [2]; Human QC): 57.2 ± 0.4 s⁻¹ | Ki (mM) (human QC [2]; [6]): n.i. | kcat (human QC [2]; [6]): 54.4 ± 0.5 s⁻¹ | Ki (mM) (human QC [2]; [7]): n.i. | kcat (human QC [2]; [7]): 47.6 ± 0.6 s⁻¹ | Ki* (mM) (human QC [2]; Human QC): n.i.

Compound: O=C(c1ccccc1)n1ccnc1 [1-benzoylimidazole]
inhibition of human QC (human QC [3]): loss of inhibitory quality

Compound: N#CN=C(NCCCn1ccnc1)NCc1ccc2c(c1)OCO2 [Example 81]
Ki (human QC [3]): 1530 nM

Compound: Cc1nc2ccccc2[nH]1 [2-methyl-benzimidazole]
inhibition of human QC (human QC [3]): the inhibition constant drops about one order of magnitude

Compound: NCCc1c[nH]cn1 [L-Histamine]
inhibition of human QC (human QC [3]): about one order of magnitude smaller compared to its acetylated counterpart

Compound: EFRHDSGYEVHHQKLVFFA-NH2 [Aβ3-21a]
glutamate-containing peptide as QC-substrate (human QC [4]): can also serve as QC-substrates

Compound: [Gln^3]-glucagon (3-29): QC substrate
substrate conversion, determined qualitatively (human QC [1]; Human QC, MALDI-TOF): * | Km (human QC [2]; [5]): 19 ± 1 µM | kcat (human QC [2]; [5]): 10.0 ± 0.2 s⁻¹
